Measurements reported in publication PMC12472586, “Leveraging Natural Compounds for Pancreatic Lipase Inhibition via Virtual Screening” (Pharmaceuticals, 2025).
Read-outs that look alike come from different tables or passages of the source.

Target: T1, porcine pancreatic lipase (triacylglycerol acyl hydrolase; EC 3.1.1.3) (Sus scrofa, UniProt P00591)
T1 sequence (P00591 1-450): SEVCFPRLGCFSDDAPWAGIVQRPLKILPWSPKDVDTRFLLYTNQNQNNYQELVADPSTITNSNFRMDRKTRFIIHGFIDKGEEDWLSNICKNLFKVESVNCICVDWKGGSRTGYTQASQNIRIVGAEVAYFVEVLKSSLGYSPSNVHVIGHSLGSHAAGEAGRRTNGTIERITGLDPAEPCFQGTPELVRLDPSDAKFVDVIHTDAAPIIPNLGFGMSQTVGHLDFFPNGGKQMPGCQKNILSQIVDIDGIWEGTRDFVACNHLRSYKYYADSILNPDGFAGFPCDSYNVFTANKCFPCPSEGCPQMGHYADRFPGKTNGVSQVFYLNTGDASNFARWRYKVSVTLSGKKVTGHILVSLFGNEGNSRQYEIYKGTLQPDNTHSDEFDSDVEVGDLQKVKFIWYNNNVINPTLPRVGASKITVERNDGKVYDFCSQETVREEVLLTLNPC
Experiment: In vitro pancreatic lipase inhibition, 4-nitrophenyl butyrate substrate
Type: biochemical
Conditions: means ± SD (n = 3), PBS pH 7.2, 37 °C, OD 405 nm
Experimental: The inhibition of PL was evaluated using a previously reported method.
The inhibition studies of porcine pancreatic lipase (triacylglycerol acyl hydrolase; EC 3.1.1.3) were performed employing 4-nitrophenyl butyrate as a substrate. The compounds were dissolved in MeOH at concentrations from 0.22 mM to 2.7 mM. […] Then, the substrate solution was added (10 μL of 3.2 mM in H2O:DMF, 70:30), and the plate was incubated and shaken for 30 min at 37 °C. The optical density values (OD) were acquired at 405 nm with a Synergy H1 microplate reader (BioTek, Bad Friedrichshall, Germany). The experiments were performed in triplicate, and the %inhibition was determined by the following equation:(1) %inhibition=ODcontrol−ODsample/ODcontrol× 100% where ODcontrol refers to the enzyme–substrate mixture, while ODsample corresponds to the enzyme–substrate mixture in the presence of the inhibitor.
OriginPro 2023 software (OriginLab Corp., Northampton, MA, USA) was adopted for statistical analysis. The regression coefficients were determined based on the analysis of variance (one-way ANOVA, significance level 0.01). A p-value < 0.01 was set as the threshold for significance for Tukey’s test.

Row | IC50 | IC50 (read-out: IC50) [µM] | SMILES
1 | low micromolar range | 12.3 ± 1.2 | COc1cc([C@H]2c3cc(O)c(OC)cc3C[C@@H](CO)[C@@H]2CO)ccc1O [Isolariciresinol]
2 | low micromolar range | 13.2 ± 0.6 | Oc1ccc(/C=C/c2cc(O)cc3c2[C@@H](c2cc(O)cc(O)c2)[C@H](c2ccc(O)cc2)O3)cc1 [ε-Viniferin, Ɛ-Viniferin]
3 | – | 84.5 ± 1.5 | C/C(=C\COc1c2ccoc2cc2oc(=O)ccc12)CCC(O)C(C)(C)O (centres unmarked) [Dihydroxybergamottin]
